Consider 11 compounds from patent publication US8598132B2, “Glycosylated indolocarbazoles, method for obtaining same and uses thereof” (Universidad de Oviedo, priority 2008, dated 2013).

Format in all cases: biochemical
The target in experiment [1] is T1, Dyrk1a (Homo sapiens, UniProt Q13627).
T1 construct: purchased Upstate
Nature of the experiment: LabChip (Caliper) kinase assay, Dyrk1a. The following applies: for inhibition at 0.01 µM: compound at 10 nM; for inhibition at 0.01 µM / inhibition at 0.1 µM: read-out: remaining kinase activity (in %) / percentage of inhibition; for inhibition at 0.1 µM: compound at 100 nM; for IC50: ATP at Km, read-out: CI50 (the source's name). As for the experimental part:
(§1) The analysis of kinase activity described here was performed using LabChip (Caliper Life Sciences), specifically the Caliper LC3000 and the EZ Reader II instruments.
(§2) The kinase assay used measures the conversion of a fluorescent peptide (substrate) to a phosphorylated product. The reaction mixture, in a microplate well, is introduced by a capillary in a chip where the non-phosphorylated substrate and the phosphorylated product are separated by […]. The intensity of the fluorescent signal over time is related to the reaction progress. The phosphorylated product migrates quicker than the non-phosphorylated substrate and the signals of the two forms of the peptide appear as differentiated peaks. The Caliper determines the peak height and calculates the ratio of product to the peak sum (P/(P+S)). This value is used to compare wells with compounds and wells with controls and thus determine the % of inhibition for the given product.
(§3) The followings kinases were used for the enzymatic inhibition studies, between brackets the value of the Michaelis-Menten constant, Km, of the ATP (Adenosine triphosphate) for each kinase, in μM: obtained from Carna Biosciences: MAPKAPK2 (4.6), AurA (3.6), AurB (5), PKCζ (3.8), RSK1 (23.3), PRAK (5), Erk1 (33.4), PKD2 (32.1), CK1d (16.3), CHK1 (33), ABL (61.7), FYN (36), LYNa (17), CHK2 (57.8), MET (79.5), LCK (28.5), SRC (38), GSK3β (7.3), Erk2 (62.1), PKACα (1.7), AKT2 (186.1), INSR (871.8), p38a (396.5), AKT1(48), MSK1 (21.2), PKCβ2 (84.8), ROCK2 (3.3), PIM2 (4.9), AMPK (38.6), KDR (164.8), IRAK4 (196.5), SGK1 (121.8), SYK (33.5); obtained from Invitrogen: CDK2 (57.6), BTK (123), HGK (80); obtained from Upstate: MST2 (36.6), PKGα (16), PAK2 (1.9), IGF1R (320), FGFR1 (171), MARK1 (33), CAMK2δ (22.4), c-TAK1 (66), DYRK1a (18.1), CaMK4 (3.9), FLT3 (350), c-Raf (6.2), P70S6K (95).
(§4) The compounds were dissolved in 100% DMSO and were diluted at 25 times the final concentration desired for the assay. In the case of the determination of Cl50, serial dilutions were made to reach eight concentrations and give rise to the inhibition curve. 1 μL of each concentration is transferred, in duplicate to a 384-well microplate. 12 μL of enzymatic buffer is added to each well containing purified kinase (several suppliers as indicated above), 100 mM HEPES, pH 7.5, 1 mM DTT (Calbiochem), 0.002% Brij-35 (Sigma) and also in presence of 10 mM MgCl2 as cofactor, except for INSR and IRAK4 wherein 10 mM MnCl2 is used instead of MgCl2. For the kinases CAMK26 and CAMK4, 1 mM CaCl2 and 6.7 μg/mL of calmodulin are also added. For KDR kinase, 0.05% of the CHAPSO detergent is added. For the c-Raf kinase, 10 mM MnCl2 is added. For PKCβ2 0.02 μg/mL of PS/PMA is added. For PKGα se 10 μM of cGMP (cyclic guanosine monophosphate) is added. The compound and the enzyme are left for 15 minutes preincubation and, then, the following are added to each well: 12 μL of peptide buffer/ATP containing 100 mM HEPES, pH 7.5, 1.5 μM peptide marker with fluorescein (specific for the corresponding kinase), ATP (at concentration KM), and 0.002% Brij-35 to start the reaction. Generally, the reactions are incubated for 1-1.5 h at ambient temperature to obtain an adequate conversion (15-40%) of the peptide to the phosphorylated product. The reactions were ended by the addition of 45 μL of buffer containing 0 mM EDTA. The microplates were read by the LabChip 3000 using a 12-channel LabChip. The P/(P+S) values were obtained as described above and the CI50 curves were generated using XIfit.
(§5) Table 9a has the 0150 data obtained in pairs of compound-kinase selected from the compounds of formula (VII), (VIII), (IX), (XVI), (XVII) and (XVIII) after taking inhibition measurements at 100 nM and 10 nM. Those couples that provide >70% of inhibition at 10 nM were consider for measuring its IC50. […]

Experiment [2] has as its target FGFR3 (Homo sapiens, UniProt P22607). Nature of the experiment: LabChip (Caliper) kinase assay, FGFR3. The following applies: read-out: remaining kinase activity (in %) / percentage of inhibition; for inhibition at 0.01 µM: compound at 10 nM; for inhibition at 0.1 µM: compound at 100 nM. The protocol: as §1, §2, §3, §4
(§6) For example, the activity of the Dyrk1a kinase is inhibited in 87% by the compound of formula (III) and completely by the compound of formula (XII) when used at a concentration of 10 nM.

In experiment [3] the target is T2, PDK1 (Homo sapiens, UniProt O15530).
T2 sequence (O15530 1-556): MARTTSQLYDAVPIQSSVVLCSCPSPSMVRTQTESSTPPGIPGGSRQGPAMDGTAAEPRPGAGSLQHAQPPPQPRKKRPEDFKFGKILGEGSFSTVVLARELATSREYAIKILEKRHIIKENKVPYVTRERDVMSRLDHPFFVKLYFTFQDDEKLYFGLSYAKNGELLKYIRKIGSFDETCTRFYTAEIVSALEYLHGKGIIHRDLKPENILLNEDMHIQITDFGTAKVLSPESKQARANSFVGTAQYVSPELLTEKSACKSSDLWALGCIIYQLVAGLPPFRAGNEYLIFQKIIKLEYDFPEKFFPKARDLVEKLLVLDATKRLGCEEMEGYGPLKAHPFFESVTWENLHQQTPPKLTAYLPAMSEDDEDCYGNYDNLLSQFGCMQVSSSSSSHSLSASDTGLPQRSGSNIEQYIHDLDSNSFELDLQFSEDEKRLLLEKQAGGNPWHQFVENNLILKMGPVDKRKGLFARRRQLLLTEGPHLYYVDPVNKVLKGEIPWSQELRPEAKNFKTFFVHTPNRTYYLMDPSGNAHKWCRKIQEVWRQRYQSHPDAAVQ
Nature of the experiment: LabChip (Caliper) kinase assay, PDK1. The following applies: read-out: remaining kinase activity (in %) / percentage of inhibition; for inhibition at 0.01 µM: compound at 10 nM; for inhibition at 0.1 µM: compound at 100 nM. The protocol: as §1, §2, §3, §4, §6

Experiment [4] addresses T3, HGK (Homo sapiens, UniProt O95819).
T3 construct: purchased Invitrogen
Nature of the experiment: LabChip (Caliper) kinase assay, HGK. As to conditions: for inhibition at 0.01 µM: compound at 10 nM; for inhibition at 0.01 µM / inhibition at 0.1 µM: read-out: remaining kinase activity (in %) / percentage of inhibition; for inhibition at 0.1 µM: compound at 100 nM; for IC50: ATP at Km, read-out: CI50 (the source's name). The protocol:
as §1, §2, §3, §4, §5

T3 sequence (O95819 whole entry, species assumed): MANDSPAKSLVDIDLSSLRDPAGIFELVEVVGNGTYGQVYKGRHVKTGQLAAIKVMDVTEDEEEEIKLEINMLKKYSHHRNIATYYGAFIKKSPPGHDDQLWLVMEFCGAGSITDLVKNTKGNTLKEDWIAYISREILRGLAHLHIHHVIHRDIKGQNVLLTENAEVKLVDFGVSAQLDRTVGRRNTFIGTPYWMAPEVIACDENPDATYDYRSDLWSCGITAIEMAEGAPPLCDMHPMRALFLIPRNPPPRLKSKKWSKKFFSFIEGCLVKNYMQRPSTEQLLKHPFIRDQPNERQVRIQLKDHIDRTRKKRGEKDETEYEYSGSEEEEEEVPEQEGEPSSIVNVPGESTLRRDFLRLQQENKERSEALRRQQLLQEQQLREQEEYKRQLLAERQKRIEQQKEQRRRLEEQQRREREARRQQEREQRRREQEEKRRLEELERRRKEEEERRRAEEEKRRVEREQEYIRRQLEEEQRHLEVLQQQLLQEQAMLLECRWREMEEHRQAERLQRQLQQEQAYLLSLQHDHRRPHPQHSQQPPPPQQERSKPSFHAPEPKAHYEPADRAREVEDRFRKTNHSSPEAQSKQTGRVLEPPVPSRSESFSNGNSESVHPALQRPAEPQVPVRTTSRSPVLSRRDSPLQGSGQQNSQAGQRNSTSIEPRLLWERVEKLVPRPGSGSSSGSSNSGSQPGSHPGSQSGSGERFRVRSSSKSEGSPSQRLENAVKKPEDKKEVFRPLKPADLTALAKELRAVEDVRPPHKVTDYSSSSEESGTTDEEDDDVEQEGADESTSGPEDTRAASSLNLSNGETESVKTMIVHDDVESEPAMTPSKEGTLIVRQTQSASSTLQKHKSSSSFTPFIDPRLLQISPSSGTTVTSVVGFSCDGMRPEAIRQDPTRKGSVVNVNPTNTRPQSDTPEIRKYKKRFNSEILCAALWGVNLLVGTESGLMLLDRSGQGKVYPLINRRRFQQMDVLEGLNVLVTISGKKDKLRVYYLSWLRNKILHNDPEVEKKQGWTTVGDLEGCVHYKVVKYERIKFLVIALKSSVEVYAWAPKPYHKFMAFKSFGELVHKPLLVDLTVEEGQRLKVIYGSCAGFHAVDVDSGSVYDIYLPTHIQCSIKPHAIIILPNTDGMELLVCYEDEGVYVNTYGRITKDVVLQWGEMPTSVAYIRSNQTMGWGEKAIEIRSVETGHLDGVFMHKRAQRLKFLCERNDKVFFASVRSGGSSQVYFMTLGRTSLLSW
Chain of FGFR3 (P22607 23-806, species assumed): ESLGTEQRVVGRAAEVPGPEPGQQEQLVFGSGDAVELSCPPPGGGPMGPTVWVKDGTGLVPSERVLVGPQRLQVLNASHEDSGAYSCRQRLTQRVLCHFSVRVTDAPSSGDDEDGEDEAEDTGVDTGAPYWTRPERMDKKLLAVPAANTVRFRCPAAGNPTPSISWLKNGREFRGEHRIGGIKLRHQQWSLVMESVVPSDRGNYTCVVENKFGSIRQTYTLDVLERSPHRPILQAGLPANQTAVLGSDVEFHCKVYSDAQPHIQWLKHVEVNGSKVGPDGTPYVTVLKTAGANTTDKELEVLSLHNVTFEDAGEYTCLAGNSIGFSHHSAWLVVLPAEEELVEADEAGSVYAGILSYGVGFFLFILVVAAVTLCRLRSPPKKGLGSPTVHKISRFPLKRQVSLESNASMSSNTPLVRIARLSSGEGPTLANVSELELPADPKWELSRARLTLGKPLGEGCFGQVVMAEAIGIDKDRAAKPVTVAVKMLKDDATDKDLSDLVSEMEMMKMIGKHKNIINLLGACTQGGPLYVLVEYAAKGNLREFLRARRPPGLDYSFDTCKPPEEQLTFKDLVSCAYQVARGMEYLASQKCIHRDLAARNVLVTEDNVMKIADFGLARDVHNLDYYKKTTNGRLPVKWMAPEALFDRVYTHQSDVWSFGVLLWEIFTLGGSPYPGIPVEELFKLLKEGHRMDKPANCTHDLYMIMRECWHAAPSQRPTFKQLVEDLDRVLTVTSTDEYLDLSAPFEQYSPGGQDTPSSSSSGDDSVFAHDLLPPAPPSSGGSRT

`C[C@@H]1O[C@@H](n2c3ccccc3c3c4c(c5c6ccccc6[nH]c5c32)C(=O)NC4=O)[C@H](O)[C@H](O)[C@H]1O` [formula (III), N^13-1′-β-L-rhamnosylarcyriaflavin]: the inhibition at 0.01 µM in experiment [1] was 87%; in experiment [2], -10%; in experiment [3] it was -6%; in experiment [4] it was 30%. In addition, the inhibition at 0.1 µM in experiment [1] was 103%; in experiment [2], -4%; in experiment [3] it was 46%; in experiment [4], 89%.

As for `C[C@@H]1O[C@@H](n2c3ccccc3c3c4c(c5c6ccccc6[nH]c5c32)C(=O)NC4=O)C[C@H](O)[C@H]1O` [formula (IV), N^13-1′-β-L-olivosylarcyriaflavin], the inhibition at 0.01 µM is 32% in experiment [1], -6% in experiment [2], 7% in experiment [3] and 9% in experiment [4]. For the same compound, the inhibition at 0.1 µM came out at 75% in experiment [1], 3% in experiment [2], 71% in experiment [3] and 62% in experiment [4].

`C[C@]12O[C@H](C[C@@H](O)[C@H]1O)n1c3ccccc3c3c4c(c5c6ccccc6n2c5c31)C(=O)NC4=O` [formula (IX), N^12-5′(S)-N^13-1′-(R)-L-digitoxosylarcyriaflavin]: the IC50 in experiment [1] and in experiment [4] was greater than 10 nM in each case.

On to `C[C@@H]1O[C@@H](n2c3ccccc3c3c4c(c5c6ccccc6[nH]c5c32)C(=O)NC4=O)C[C@@H](O)[C@H]1O` [formula (V), N^13-1′-β-L-digitoxosylarcyriaflavin], for which the inhibition at 0.01 µM in experiment [1] was 49%; in experiment [2], -6%; in experiment [3], 61%; in experiment [4], 54%. For the same compound, the inhibition at 0.1 µM was 87% in experiment [1], -1% in experiment [2], 97% in experiment [3] and 90% in experiment [4].

Consider `C[C@H]1O[C@@H](n2c3ccccc3c3c4c(c5c6ccccc6[nH]c5c32)C(=O)NC4=O)C[C@@H](O)[C@@H]1O` [formula (VI), N^13-1′-β-D-olivosylarcyriaflavin], for which the inhibition at 0.01 µM is 62% in experiment [1], -8% in experiment [2], 21% in experiment [3] and 35% in experiment [4]. The inhibition at 0.1 µM is 94% in experiment [1], -11% in experiment [2], 76% in experiment [3] and 83% in experiment [4].

Take `C[C@]12O[C@H]([C@H](O)[C@H](O)[C@H]1O)n1c3ccccc3c3c4c(c5c6ccccc6n2c5c31)C(=O)NC4=O` [formula (VII), N^12-5′(S)-N^13-1′-(R)-L-rhamnosylarcyriaflavin]: the IC50 was 4 nM in experiment [1] and 0.78 nM in experiment [4].

Turning to `C[C@@H]1O[C@@H](n2c3ccccc3c3c4c(c5c6ccccc6[nH]c5c32)CNC4=O)[C@H](O)[C@H](O)[C@H]1O` [formula (XII), N^13-1′-β-L-rhamnosyl-k252c], the inhibition at 0.01 µM in experiment [1] was 101%; in experiment [2], -2%; in experiment [3], -10%; in experiment [4] it was 44%. The inhibition at 0.1 µM in experiment [1] is 115%; in experiment [2] it was -1%; in experiment [3], 15%; in experiment [4], 91%.

With `C[C@@H]1O[C@@H](n2c3ccccc3c3c4c(c5c6ccccc6[nH]c5c32)CNC4=O)C[C@H](O)[C@H]1O` [formula (XIII), N^13-1′-β-L-olivosyl-k252c], the inhibition at 0.01 µM in experiment [1] is 42%; in experiment [2], -4%; in experiment [3], 9%; in experiment [4] it was 16%. Further, the inhibition at 0.1 µM in experiment [1] was 89%; in experiment [2], -6%; in experiment [3], 81%; in experiment [4], 76%.

For `C[C@@H]1O[C@@H](n2c3ccccc3c3c4c(c5c6ccccc6[nH]c5c32)CNC4=O)C[C@@H](O)[C@H]1O` [formula (XIV), N^13-1′-β-L-digitoxosyl-k252c], the inhibition at 0.01 µM in experiment [1] is 15%; in experiment [2], -6%; in experiment [3] it was 30%; in experiment [4] it was 20%. The inhibition at 0.1 µM in experiment [1] was 73%; in experiment [2], -11%; in experiment [3] it was 94%; in experiment [4], 78%.

Consider `C[C@H]1O[C@@H](n2c3ccccc3c3c4c(c5c6ccccc6[nH]c5c32)CNC4=O)C[C@@H](O)[C@@H]1O` [formula (XV), N^13-1′-β-D-olivosyl-k252c], for which the inhibition at 0.01 µM in experiment [1] was 14%; in experiment [2], -20%; in experiment [3] it was 3%; in experiment [4] it was 36%. For the same compound, the inhibition at 0.1 µM was 50% in experiment [1], -13% in experiment [2], 81% in experiment [3] and 89% in experiment [4].

Regarding `C[C@]12O[C@H](C[C@@H](O)[C@H]1O)n1c3ccccc3c3c4c(c5c6ccccc6n2c5c31)CNC4=O` [formula (XVIII), N^12-5′(S)-N^13-1′-(R)-L-digitoxosyl-k252c], the IC50 in experiment [1] was greater than 100 nM; in experiment [4] it was greater than 10 nM.
